The values below come from US11780845B2 (Relay Therapeutics, Inc., priority 2019, dated 2023).

One experiment deals with FGFR2 (Homo sapiens (Human), UniProt P21802). Put plainly: FGFR2 Biochemical Caliper Assay. On the procedure: Compounds of the present invention were also tested in a FGFR2 Biochemical Caliper Assay. Compounds were prepared in 10 mM DMSO solution and serially diluted into 11 concentrations by 3-fold dilution. […] 5 uL of ATP solution (100 uM) was added to start the reaction and the plate was incubated for 90 minutes, then 70 uL of stopping buffer (0.5M EDTA) was added to terminate the reaction. Each well was analyzed using EZ reader.

The next experiment relates to SNU16 cells. Put plainly: SNU16 Cancer Cell Line Proliferation Assay. As to conditions: Homo sapiens; SNU-16 cells. In kind it is cell-based. The essentials:
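SNU16 cells were seeded, held 24 h at 37 degrees, then dosed with an 11-point 3-fold dilution series prepared from a 10 mM DMSO stock. After 96 h incubation, viability was read by CellTiter Glo luminescence.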

Sequence of FGFR2 (P21802 22-821): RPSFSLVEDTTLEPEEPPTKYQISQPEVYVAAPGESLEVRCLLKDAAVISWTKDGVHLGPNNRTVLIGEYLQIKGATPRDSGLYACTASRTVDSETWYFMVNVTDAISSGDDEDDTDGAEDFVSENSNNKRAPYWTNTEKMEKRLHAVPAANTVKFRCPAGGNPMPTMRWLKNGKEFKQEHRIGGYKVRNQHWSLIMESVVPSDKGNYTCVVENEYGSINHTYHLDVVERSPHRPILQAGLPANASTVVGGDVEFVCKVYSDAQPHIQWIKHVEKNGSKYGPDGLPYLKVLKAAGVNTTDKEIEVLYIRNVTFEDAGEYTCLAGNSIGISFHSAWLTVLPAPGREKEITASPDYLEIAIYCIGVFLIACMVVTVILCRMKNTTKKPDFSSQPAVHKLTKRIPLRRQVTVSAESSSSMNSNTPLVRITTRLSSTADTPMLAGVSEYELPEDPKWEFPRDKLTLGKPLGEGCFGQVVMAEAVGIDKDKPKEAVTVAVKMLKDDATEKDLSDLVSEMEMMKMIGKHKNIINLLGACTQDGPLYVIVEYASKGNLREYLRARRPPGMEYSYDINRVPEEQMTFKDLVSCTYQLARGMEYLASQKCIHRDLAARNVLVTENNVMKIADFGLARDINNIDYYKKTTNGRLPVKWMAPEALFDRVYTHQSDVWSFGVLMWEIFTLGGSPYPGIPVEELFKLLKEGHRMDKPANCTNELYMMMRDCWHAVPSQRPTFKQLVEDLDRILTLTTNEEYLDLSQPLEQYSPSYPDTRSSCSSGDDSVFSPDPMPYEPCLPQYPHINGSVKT

As for `C=CC(=O)N1CCCC(n2cc(-c3c(-c4ccc(Oc5cccc(C)n5)cc4)c4c(N)ncnc4n3C)cn2)C1C` (stereo not shown) [Example 627], the figures for the IC50 at FGFR2 and in the experiment on SNU16 cells were less than 100 nM and no more than 100 nM, respectively.

Regarding `C=CC(=O)N(C)C1CC(n2cc(-c3c(-c4ccc(Oc5cccc(C)n5)cc4)c4c(N)ncnc4n3C)cn2)C1` (stereo not shown) [Example 628], the IC50 is less than 100 nM against FGFR2 and no more than 100 nM in the experiment on SNU16 cells.

Take `C=CC(=O)N1CCCC(n2cc(-c3c(-c4ccc(Oc5cccc(C)n5)cc4)c4c(N)ncnc4n3C)cn2)C1` (stereo not shown) [Example 629]: the IC50 is less than 100 nM against FGFR2 and no more than 100 nM in the experiment on SNU16 cells.

`C=CC(=O)N1CCC(n2cc(-c3c(-c4ccc(Oc5cccc(C)n5)cc4)c4c(N)ncnc4n3C)cn2)C1` (stereo not shown) [Example 630]: the concentration for half-maximal inhibition (IC50) was less than 100 nM at FGFR2 and no more than 100 nM with SNU16 cells.

In the case of `C=CC(=O)N1CCC(n2cc(-c3c(-c4ccc(Oc5cc(C)ccn5)cc4)c4c(N)ncnc4n3C)cn2)CC1` [Example 631], the 50% inhibitory concentration (IC50) against FGFR2 and with SNU16 cells was 100 to 250 nM throughout.

Take `C=CC(=O)N1CCC(n2cc(-c3c(-c4ccc(Oc5cccc(C)n5)cc4)c4c(N)ncnc4n3C)c(C)n2)CC1` [Example 632]: the IC50 was less than 100 nM on FGFR2 and no more than 100 nM with SNU16 cells.

In the case of `C=CC(=O)N1CCC(n2cc(-c3c(-c4ccc(Oc5ncccn5)cc4)c4c(N)ncnc4n3C)cn2)CC1` [Example 633], the IC50 against FGFR2 and with SNU16 cells was 100 to 250 nM each time.

Regarding `C=CC(=O)N1CCC(n2cc(-c3c(-c4ccc(Oc5cccc(F)n5)cc4)c4c(N)ncnc4n3C)cn2)CC1` [Example 634], the values for the IC50 against FGFR2 and in the experiment on SNU16 cells were less than 100 nM and no more than 100 nM, respectively.

Consider `CC#CC(=O)N1CCC(n2cc(-c3c(-c4ccc(Oc5cccc(C)n5)cc4)c4c(N)ncnc4n3C)cn2)C1` (stereo not shown) [Example 635], for which the figures for the half-inhibitory concentration (IC50) at FGFR2 and with SNU16 cells were 100 to 250 nM and no more than 100 nM, respectively.

Turning to `C=CC(=O)N1CCC(n2cc(-c3c(-c4ccc(Oc5ccc(C)cn5)cc4)c4c(N)ncnc4n3C)cn2)CC1` [Example 636], the IC50 against FGFR2 was 100 to 250 nM; in the experiment on SNU16 cells, no more than 100 nM.

For the molecule `C=CC(=O)N1CCC(n2ncc(-c3c(-c4ccc(Oc5cccc(C)n5)cc4)c4c(N)ncnc4n3C)c2C)CC1` [Example 637], the IC50 at FGFR2 was less than 100 nM; with SNU16 cells, no more than 100 nM.

With `C=CC(=O)N1CCC(n2cc(-c3c(-c4ccc(Oc5ccccn5)cc4)c4c(N)ncnc4n3C)cn2)CC1` [Example 638], the IC50 on FGFR2 is less than 100 nM; with SNU16 cells, no more than 100 nM.

Take `C/C=C/C(=O)N1CC(n2cc(-c3c(-c4ccc(Oc5cccc(C)n5)cc4)c4c(N)ncnc4n3C)cn2)C1` [Example 639]: the half-maximal inhibitory concentration (IC50) against FGFR2 was less than 100 nM; with SNU16 cells it was no more than 100 nM.

Turning to `C/C=C/C(=O)N1CCC(n2cc(-c3c(-c4ccc(Oc5cccc(C)n5)cc4)c4c(N)ncnc4n3C)cn2)C1` (stereo not shown) [Example 640], the concentration for half-maximal inhibition (IC50) on FGFR2 was less than 100 nM; in the experiment with SNU16 cells it was no more than 100 nM.

For the molecule `C=CC(=O)N1CCC(n2cc(-c3c(-c4ccc(Oc5cccc(C)n5)c(OC)c4)c4c(N)ncnc4n3C)cn2)CC1` [Example 641], the IC50 on FGFR2 is less than 100 nM; in the experiment on SNU16 cells, no more than 100 nM.

Regarding `C=CC(=O)N1CCC(n2cc(-c3c(-c4ccc(Oc5cnccn5)cc4)c4c(N)ncnc4n3C)cn2)CC1` [Example 642], the IC50 lay within 250 to 1000 nM against FGFR2 and 100 to 250 nM with SNU16 cells.

With `C=C(CN1CCOCC1)C(=O)N1CCC(n2cc(-c3c(-c4ccc(Oc5cccc(C)n5)cc4)c4c(N)ncnc4n3C)cn2)CC1` [Example 643], the 50% inhibitory concentration (IC50) on FGFR2 and in the experiment on SNU16 cells was 250 to 1000 nM in each case.

For the molecule `CC#CC(=O)N1CCC(n2cc(-c3c(-c4ccc(Oc5cccc(C)n5)cc4)c4c(N)ncnc4n3C)cn2)CC1` [Example 644], the IC50 on FGFR2 and in the experiment with SNU16 cells was 250 to 1000 nM in each case.

Take `C=CC(=O)N1CCC(c2c(-c3ccc(Oc4cccc(C)n4)cc3)c3c(N)ncnc3n2C)C1` (stereo not shown) [Example 645]: the IC50 is less than 100 nM on FGFR2 and no more than 100 nM in the experiment on SNU16 cells.

As to `Cc1cccc(Oc2ccc(-c3c(-c4cnn(C5CCN(C(=O)/C=C/CN6CCOCC6)CC5)c4)n(C)c4ncnc(N)c34)cc2)n1` [Example 646], the IC50 against FGFR2 and with SNU16 cells was 100 to 250 nM each time.
